Results on ten compounds are retold here after patent publication US9029394B2, “2-phenyl-4-quinolones as anticancer agents” (China Medical University, priority 2006, dated 2015).

For data set [1], the system named is HL-60 leukemia cancer cell line. Put plainly: Cytotoxic activity, MTT assay, HL-60. The class given is cell-based, human. The note with it: 50% growth-inhibitory effect.
Method: (§1) Cells were seeded in a 24-well microtiter plate (2×10^4 cells/well) overnight, then treated with DMSO (Control) or various concentrations of test compounds, and incubated for 48 hours. The effect of test compounds on cell growth was examined by the MTT (3-(4,5-dimethylthiazol-2-yl)-2,5-diphenyl tetrazolium bromide) assay. Briefly, 40 μl of MTT solution (2 mg/ml, Sigma Chemical Co.) was added to each well to make a final volume of 500 μl and incubated for 1 h at 37° C. The supernatant was aspirated, and the MTT-formazan crystals formed by metabolically viable cells were dissolved in 200 μl of DMSO. Finally, the absorbance at O.D. 550 nm was detected by enzyme-linked immunosorbent assay (ELISA) reader.
Data set [2] has as its system MCF-7 cells. Put plainly: Cell viability assay (MTT assay), MCF-7. To be noted: 0.125 to 10 μM, 48 hours; dose-dependent decrease of cell viability. For orientation: Formazan colour is commonly taken as a measure of viable cells.
Method: as §1
Data set [3] deals with CT-26 tumor cells. Put plainly: CT-26 intraperitoneal tumor model. In kind it is in vivo, mice. The note with it: for day post challenge by which all mice were dead: excipient control all dead 40 days after. Here is the method: 30 male 6-week-old Balb/c mice, were purchased from the National Animal cancer and maintained in pressurized ventilated cage according to institutional regulations. CT-26 (1×10^6) cells were injected into peritoneal cavities at day 0. Animals were randomly assigned to anti-tumoral efficacy study (n=10). Seven days after tumor inoculation, oral administration of 5 and 10 mg/kg of I-1-b (QD for seven times) to the mice was carried out. The survival rate and body weight of the animals was monitored.

For data set [4], the system named is HCT-116 colon cancer cell line. In words: Cytotoxic activity, MTT assay, HCT-116. In kind it is cell-based, human. To be noted: 48 h, 50% growth-inhibitory effect, read-out: IC50 HCT116.
Method: as §1
Data set [5] relates to A549 lung cancer cell line. In words: Cytotoxic activity, MTT assay, A549. In kind it is cell-based, human. The note with it: 48 h, 50% growth-inhibitory effect.
Method: as §1
Data set [6] concerns NCI-H226 non-small cell lung cancer cell line. In words: Cytotoxic activity, MTT assay, NCI-H226. To be noted: 48 h, 50% growth-inhibitory effect. In kind it is cell-based, human.
Method: as §1
Data set [7] deals with A498 renal cancer cell line. In words: Cytotoxic activity, MTT assay, A498. In kind it is cell-based, human. The note with it: 48 h, 50% growth-inhibitory effect.
Method: as §1
Data set [8] has as its system Hep G2 hepatoma cancer cell line. Put plainly: Cytotoxic activity, MTT assay, Hep G2. The class given is cell-based, human. The note with it: 48 h, 50% growth-inhibitory effect.
Method: as §1
The mark [9] stands for this setting: Homo sapiens, Table 2, HL-60 cells, 48 h, read-out: IC50.

Where a name gives a salt, the structure may show the parent alone. Read-outs that look alike come from different tables or passages of the source.

Usually IC50 stands for the midpoint of a concentration-inhibition curve. As for `CCN(CC)Cc1ccc2[nH]c(-c3ccccc3F)cc(=O)c2c1` [Compound I-9-e, 6-[(Diethylamino)methyl]-2-(2-fluorophenyl)quinolin-4(1H)-one], in data set [1] (setting [9]), the IC50 was 5.8 µM.
In the case of `CCN(CC)Cc1cccc(-c2cc(=O)c3cc(OC)ccc3[nH]2)c1` [Compound I-10-f, 2-{3-[(Diethylamino)methyl]phenyl}-6-methoxyquinolin-4(1H)-one], the IC50 in [1] (setting [9]) is more than 50 µM.
As a reminder, the melting point is the temperature of the solid-liquid transition. With `O=P(O)(O)Oc1cc(-c2ccccc2)nc2ccc(F)cc12` [Compound I-3-b, 6-Fluoro-2-phenylquinolin-4-yl-phosphate], the melting point is more than 300 °C. Besides, the “cytotoxicity against MCF-7 cells (cell viability, MTT)” value (from here on “cytotoxicity against MCF-7 cells”) in [2] is listed as “significant cytotoxicity”.
Taken in the same sequence, the figures for `COc1ccc2nc(-c3cccc(F)c3)cc(OP(=O)(O)O)c2c1` [Compound I-5-b, 6-Methoxy-2(3-′fluorophenyl)-quinolin-4-yl-phosphate] were more than 300 °C and “significant cytotoxicity”.
As for `O=P(O)(O)Oc1cc(-c2ccccc2F)nc2cc3c(cc12)OCO3` [Compound I-1-b, 2-(2′-Fluorophenyl)-6,7-methylenedioxyquinolin-4-yl-phosphate], in data set [3] (5 mg/kg/day QD×7), the “average life span prolonged by” value turned out to be 120% and the “day post challenge by which all mice were dead” value is not above 45 days. Also, in [3] (10 mg/kg/day QD×7), the “average life span prolonged by” value was determined as 140% and the “day post challenge by which all mice were dead” value was not above 50 days. Besides, the maximally tolerated dose entry in data set [3] (Balb/c mice, oral, up to 10 mg/kg/day QD×7) is reported as “not achieved”. The “cytotoxicity against MCF-7 cells” value in data set [2] is “significant cytotoxicity”.
With `CCN(CC)Cc1ccc2[nH]c(-c3ccccc3)cc(=O)c2c1` [Compound I-8-e, 6-[(Diethylamino)methyl]-2-phenylquinolin-4(1H)-one], the IC50 in data set [1] (setting [9]) was 15 µM.
In the case of `O=c1cc(-c2ccc[se]2)[nH]c2cc3c(cc12)OCO3` [Compound I-7-d, 2-(2′-Selenophenyl)-6,7-(methylenedioxy)-4-quinolone], the IC50 in [4] worked out at 0.9 µM; in [5], 8.1 µM; in data set [6] it was 4.9 µM; in data set [7], 2.7 µM; in data set [8] it was 4.1 µM; in data set [1] (Table 1, 48 h, read-out: IC50 HL-60), 0.5 µM.
As for `O=P(O)(O)Oc1cc(-c2ccccc2)nc2ccccc12` (as salt: phosphate) [Compound I-4-b, 2-Phenylquinolin-4-yl-phosphate], the melting point is more than 300 °C.
The compound `O=P(O)(O)Oc1cc(-c2cccc(F)c2)nc2cc3c(cc12)OCO3` [Compound I-2-b, 2-(3′-Fluorophenyl)-6,7-methylenedioxyquinolin-4-yl-phosphate] displayed a melting point of more than 300 °C. Moreover, the “cytotoxicity against MCF-7 cells” value in [2] is given as “significant cytotoxicity”.
For the compound `O=P(O)(O)Oc1cc(-c2ccccc2)nc2ccccc12` [Compound I-4-b, 2-Phenylquinolin-4-yl-phosphate], the “cytotoxicity against MCF-7 cells” value in [2] was “significant cytotoxicity”.
